What was measured:
[1] = system: cellular immunity (cell-mediated immunity); assay: Delayed-Type Hypersensitivity (D.T.H.) footpad swelling, effect on cellular immunity in mice immunized with sheep red blood cells; assay type: in vivo, ddY mouse; conditions: for Degree of swelling: left hind footpad, 24 hours after elicitation
Description: In order to evaluate the immunopotentiating properties of the compound (I) of this invention, the effect of the compound (I) on cellular immunity (cell-mediated immunity) was tested according to a known Delayed-Type Hypersensitivity (D.T.H.) technique (see P. H. Lagrange, G. B. Mackaness and T. E. Mille, "J. Exp. Med", 139, 1529-1539 (1974)) using mice immunized with sheep red blood cells as antigen.
Thus, 10^8 sheep red blood cells (SRBC) suspended in 0.05 ml of physiological saline were subcutaneously injected at the time of immunization to the right hind footpad of each dd/.UPSILON. mouse under test (female, 6 weeks old) to establish delayed-type hypersensitivity. Simultaneously with the immunization, a varying dose of the compound (I) was intraperitoneally injected or orally administered into each test mouse. Four days later, 10^8 sheep red blood cells were subcutantaneously injected into the left hind footpad of each test mouse for elicitation of the D.T.H. response. 24 hours after the elicitating injection, the thickness of the left hind footpad was measured to evaluate the degree of the swelling in the footpad. The degree of the swelling serves to estimate the cellular immunity involved. In the Table, the swelling degree is expressed in terms of the values calculated by the equation: [formula]

[2] = acute toxicity (LD50), intraperitoneal injection in mice; conditions: mouse, in vivo, ip; intraperitoneally injected into mice
[3] = stability compared with forphenicine; assay type: physicochemical; conditions: relative to forphenicine
immune response = assay: immunopotentiating activity upon oral administration compared with forphenicine; assay type: in vivo; conditions: relative to forphenicine
alkaline phosphatase = conditions: literature; cited from earlier work

Compound	Degree of swelling ([1]; i.p. injection, 0.1 μg/mouse)	Degree of swelling ([1]; i.p. injection, 1 μg/mouse)	Degree of swelling ([1]; i.p. injection, 10 μg/mouse)	Degree of swelling ([1]; i.p. injection, 100 μg/mouse)	potentiating effect on establishment of cellular immunity ([1]; intraperitoneal injection or oral administration, wide range of dosages)	Degree of swelling ([1]; oral administration, 0.1 μg/mouse)	Degree of swelling ([1]; oral administration, 1 μg/mouse)	Degree of swelling ([1]; oral administration, 10 μg/mouse)	Degree of swelling ([1]; oral administration, 100 μg/mouse)	LD50 [2]	stability [3]	activity upon oral administration (immune response)	inhibition of alkaline phosphatase (alkaline phosphatase)
NC(C(=O)O)c1ccc(CO)c(O)c1 (stereo not shown) [compound (I), forphenicinol]	183	159	148	131	intensive potentiating effect	139	133	191	166	> 500 mg/kg	more stable than forphenicine	higher activity than forphenicine	
NC(C(=O)O)c1ccc(C=O)c(O)c1 (stereo not shown) [Forphenicine, forphenicine]													strong inhibitor of alkaline phosphatase

— patent US4238507A, “Pharmacological compound with immunopotentiating activity and production and uses thereof” (Zaidan Hojin Biseibutsu Kagaku Kenkyu Kai, priority 1979, dated 1980)
